In PMC9098524, “Structural basis of ion – substrate coupling in the Na^+-dependent dicarboxylate transporter VcINDY” (Nature Communications, 2022) one finds Kd data, which are given here for one molecule.

The assay concerns the target T1, VcINDY (Vibrio cholerae, UniProt Q9KNE0).
T1 construct: gene VC_A0025
As to the kind of experiment: intrinsic tryptophan fluorescence quenching ([…] nm excitation, […] nm emission), quadratic binding fit. As to conditions: read-out: apparent Kd.

As for `O=C(O)CCC(=O)O` [succinate], the Kd was found to be 92.2 ± 47.4 µM.
